Structures are written as SMILES. Read-outs that look alike come from different tables or passages of the source.

The conditions of data set [1]: data from literature; ref [51]-[68]; cited from earlier work.
Data set [2] is described as follows: in vitro. To be noted: human.
Data set [3] deals with SARS-CoV-2-Nluc. Description: microbe, parasite or virus in culture. In kind it is cell-based.
Data set [4] has as its system A549-hACE2 cells.
The conditions of data set [5]: human exposures in the clinic, approved dosing schedules, ref [51]-[68], cited from earlier work; for Cmax: read-out: Exposure Cmax.
Setting [6] is: Severe acute respiratory syndrome coronavirus 2, 48 h.
Setting [7] is: Severe acute respiratory syndrome coronavirus 2, read-out: EC50 (µM) Replicate 1.
Setting [8] is: Severe acute respiratory syndrome coronavirus 2, read-out: EC50 (µM) Replicate 2.
Where [9] appears, read: read-out: EC50 (µM) Replicate 1.
Where [10] appears, read: read-out: EC50 (µM) Replicate 2.

Take `CC(C)CN(C[C@@H](O)[C@H](Cc1ccccc1)NC(=O)O[C@H]1CCOC1)S(=O)(=O)c1ccc(N)cc1` [Amprenavir]: the Plasma protein binding in data set [1] is given as 90%. In addition, the CC50 in data set [2] (CC50), in data set [2] (CC50 (µM) Replicate 1) and in data set [2] (CC50 (µM) Replicate 2) was over 50 µM in each case. Besides, the EC50 in data set [3] (setting [6]), in data set [3] (setting [7]) and in data set [3] (setting [8]) was over 10 µM in each case.

For `C=CC(=O)N1CCC[C@@H](n2nc(-c3ccc(Oc4ccccc4)cc3)c3c(N)ncnc32)C1` [Ibrutinibj], the EC50 in data set [3] (setting [9]) and in data set [3] (setting [10]) was over 10 µM in each case. The CC50 in data set [4] is over 50 µM.

For `O=C1Nc2ccc(Cl)cc2[C@@](C#CC2CC2)(C(F)(F)F)O1` [Efavirenz], in data set [1], the Plasma protein binding is 99.5–99.8%. For the same compound, the “Exposure Cmin” value in data set [5] was 5.6 µM. The CC50 turned out to be 37.6 ± 10.7 µM in data set [2] (CC50), 45.1 µM in data set [2] (CC50 (µM) Replicate 1) and 30 µM in data set [2] (CC50 (µM) Replicate 2). Moreover, the “Selectivity index (SI) = CC50/EC50” value in data set [3] is reported as under 3.9. In addition, the results for the EC50 in data set [3] (setting [6]), in data set [3] (setting [7]) and in data set [3] (setting [8]) were over 9.6 µM, 9.6 µM and over 10 µM, respectively.

`Cc1cc(/C=C/C#N)cc(C)c1Nc1ccnc(Nc2ccc(C#N)cc2)n1` [Rilpivirine]: the Plasma protein binding in data set [1] is reported as 99.7%. The “Exposure Cmin” value in data set [5] is on record as 0.30 µM. Moreover, in data set [5], the Cmax – broadly, the maximum level reached in the sampled fluid or tissue – was 0.83 µM. Also, the results for the CC50 in data set [2] (CC50), in data set [2] (CC50 (µM) Replicate 1) and in data set [2] (CC50 (µM) Replicate 2) were 14.6 ± 1.6 µM, 13.5 µM and 15.8 µM, respectively. The EC50 came to 7.8 ± 1.04 µM in data set [3] (setting [6]), 7.06 µM in data set [3] (setting [7]) and 8.53 µM in data set [3] (setting [8]).

Turning to `Nc1nc(=O)n([C@@H]2CS[C@H](CO)O2)cc1F` [Emtricitabine (FTC), Emtricitabine], in data set [1], the Plasma protein binding was 4%. Further, the Cmax in data set [5] is 7.9 µM. For the same compound, the CC50 in data set [2] (CC50), in data set [2] (CC50 (µM) Replicate 1) and in data set [2] (CC50 (µM) Replicate 2) was over 50 µM throughout. The EC50 in data set [3] (setting [6]), in data set [3] (setting [7]) and in data set [3] (setting [8]) was over 10 µM each time.

Regarding `O=C(NCc1c(F)cc(F)cc1F)c1cn2c(c(O)c1=O)C(=O)N1[C@H]3CC[C@H](C3)O[C@@H]1C2` [Bictegravir], the Plasma protein binding in data set [1] is reported as over 99%. Further, the CC50 in data set [2] (CC50) is over 50 µM. The compound further yielded an EC50 in data set [3] (setting [6]) of over 10 µM.

For `Cc1c(O)cccc1C(=O)N[C@@H](CSc1ccccc1)[C@H](O)CN1C[C@H]2CCCC[C@H]2C[C@H]1C(=O)NC(C)(C)C` [Nelfinavir], the Plasma protein binding in data set [1] is given as over 98%. For the same compound, the “Exposure Cmin” value in data set [5] is given as 2.6 µM. The Cmax in data set [5] was 8.3 µM. The CC50 in data set [2] (CC50) came out at 12 ± 1.3 µM; in data set [2] (CC50 (µM) Replicate 1) it was 11.1 µM; in data set [2] (CC50 (µM) Replicate 2), 13 µM. Further, the “Selectivity index (SI) = CC50/EC50” value in data set [3] was determined as 15.7. The EC50 in data set [3] (setting [6]) was 0.77 ± 0.32 µM; in data set [3] (setting [7]), 0.542 µM; in data set [3] (setting [8]) it was 0.993 µM; in data set [3] (Severe acute respiratory syndrome coronavirus 2, read-out: projected protein adjusted potency (paEC50)), about 30 µM.

In the case of `CC(C)(C)NC(=O)[C@@H]1C[C@@H]2CCCC[C@@H]2CN1C[C@@H](O)[C@H](Cc1ccccc1)NC(=O)[C@H](CC(N)=O)NC(=O)c1ccc2ccccc2n1` [Saquinavir], in data set [5], the “Exposure Cmin” value is 0.65 µM. The values for the CC50 in data set [2] (CC50), in data set [2] (CC50 (µM) Replicate 1) and in data set [2] (CC50 (µM) Replicate 2) were 35.1 ± 11.7 µM, 43.4 µM and 26.8 µM, respectively. The “Selectivity index (SI) = CC50/EC50” value in data set [3] came out at 3.9. The EC50 in data set [3] (setting [6]) amounted to 8.95 ± 0.31 µM; in data set [3] (setting [7]), 8.73 µM; in data set [3] (setting [8]), 9.17 µM.

On to `CC(C)OC(=O)[C@H](C)N[P@](=O)(CO[C@H](C)Cn1cnc2c(N)ncnc21)Oc1ccccc1` [Tenofovir alafenamide (TAF), Tenofovir alafenamide], for which the Plasma protein binding in data set [1] is reported as 80%. Moreover, the Cmax in data set [5] was 0.4 µM. Also, the CC50 in data set [2] (CC50), in data set [2] (CC50 (µM) Replicate 1) and in data set [2] (CC50 (µM) Replicate 2) was over 50 µM each time. Moreover, the EC50 in data set [3] (setting [6]), in data set [3] (setting [7]) and in data set [3] (setting [8]) was over 10 µM throughout.

Regarding `C[C@@]1(O)[C@H](O)[C@@H](CO)O[C@H]1n1ccc2c(N)ncnc21` [MK-0608], the EC50 in data set [3] (read-out: EC50), in data set [3] (setting [9]) and in data set [3] (setting [10]) was over 10 µM each time. Further, the CC50 in data set [4] is over 50 µM.

`CC(C)[C@@]1(C(=O)N[C@H]2CC(=O)O[C@]2(O)CF)CC(c2nccc3ccccc23)=NO1` [Nivocasan (GS-9450), Nivocasan]: the EC50 in data set [3] (read-out: EC50), in data set [3] (setting [9]) and in data set [3] (setting [10]) was over 10 µM each time. This compound had a CC50 in data set [4] of over 50 µM.

Take `Cc1cccc(C)c1OCC(=O)N[C@@H](Cc1ccccc1)[C@@H](O)C[C@H](Cc1ccccc1)NC(=O)[C@H](C(C)C)N1CCCNC1=O` [Lopinavir]: the Plasma protein binding in data set [1] is on record as 98–99%. Further, the CC50 in data set [2] (CC50) worked out at 31.5 ± 2.5 µM; in data set [2] (CC50 (µM) Replicate 1), 29.8 µM; in data set [2] (CC50 (µM) Replicate 2), 33.3 µM. The EC50 in data set [3] (setting [6]) stood at 9 ± 0.42 µM; in data set [3] (setting [7]) it was 9.3 µM; in data set [3] (setting [8]), 8.7 µM.

As to `CCOc1nc(N)nc2c1ncn2[C@@H]1O[C@@H]2COP(=O)(OC(C)C)O[C@H]2[C@@]1(C)F` (stereo partly shown) [PSI-352938], the CC50 in data set [2] (CC50), in data set [2] (CC50 (µM) Replicate 1) and in data set [2] (CC50 (µM) Replicate 2) was over 50 µM each time. Also, the EC50 in data set [3] (setting [6]), in data set [3] (setting [7]) and in data set [3] (setting [8]) was over 10 µM throughout.

In the case of `CCC[C@@]1(CCc2ccccc2)CC(O)=C([C@H](CC)c2cccc(NS(=O)(=O)c3ccc(C(F)(F)F)cn3)c2)C(=O)O1` [Tipranavir], the Plasma protein binding in data set [1] is reported as 99.9%. Further, the “Exposure Cmin” value in data set [5] is listed as 30.8 µM. Also, in data set [5], the peak concentration (Cmax) is 130 µM. The CC50 stood at 28.4 ± 0.5 µM in data set [2] (CC50), 28.8 µM in data set [2] (CC50 (µM) Replicate 1) and 28.1 µM in data set [2] (CC50 (µM) Replicate 2). In addition, in data set [3], the “Selectivity index (SI) = CC50/EC50” value is 3.3. Also, the EC50 in data set [3] (setting [6]) was 8.65 ± 0.16 µM; in data set [3] (setting [7]), 8.53 µM; in data set [3] (setting [8]) it was 8.76 µM.

As for `O=C(NCc1c(F)cc(F)cc1F)c1cn2c(c(O)c1=O)C(=O)N1[C@H]3CC[C@H](C3)O[C@@H]1C2` [Bictegravirt], the EC50 in data set [3] (setting [9]) and in data set [3] (setting [10]) was over 10 µM throughout. Moreover, the CC50 in data set [4] is over 50 µM.

The values are drawn from paper PMC7567097, “A nanoluciferase SARS-CoV-2 for rapid neutralization testing and screening of anti-infective drugs for COVID-19” (Nature Communications, 2020).
